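Test compounds were applied to cells in 96-well plates for 48 hours at 5 doses. GI50 marks 50% less growth.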 Active and inactive are the calls of the source. No stated cut-off is given here; in the data, active = GI50 up to about 1.1 µM and inactive = higher.
Assays:
Test in all cases: NCI-60 cell line screen, 48 h
NCI-H23 = test system: NCI-H23
SK-MEL-5 = test system: SK-MEL-5
Malme-3M = test system: Malme-3M
OVCAR-3 = test system: OVCAR-3
PC-3 = test system: PC-3
RPMI-8226 = test system: RPMI-8226
SNB-75 = test system: SNB-75
NCI-H226 = test system: NCI-H226
SR = test system: SR
DU-145 = test system: DU-145
NCI-H522 = test system: NCI-H522
K562 = test system: K562
ACHN = test system: ACHN
MOLT-4 = test system: MOLT-4
HCT-116 = test system: HCT-116
LOX IMVI = test system: LOX IMVI
SK-MEL-2 = test system: SK-MEL-2
MDA-MB-231 = test system: MDA-MB-231
COLO 205 = test system: COLO 205
UACC-62 = test system: UACC-62
HCT-15 = test system: HCT-15
OVCAR-8 = test system: OVCAR-8
HOP-62 = test system: HOP-62
CCRF-CEM = test system: CCRF-CEM
786-0 = test system: 786-0
NCI/ADR-RES = test system: NCI/ADR-RES
A498 = test system: A498
HL-60 = test system: HL-60
OVCAR-5 = test system: OVCAR-5
SF-268 = test system: SF-268
CAKI-1 = test system: CAKI-1
NCI-H460 = test system: NCI-H460
SK-OV-3 = test system: SK-OV-3
MCF7 = test system: MCF7
A549 = test system: A549
Hs-578T = test system: Hs-578T
M14 = test system: M14
SF-295 = test system: SF-295
SN12C = test system: SN12C
U-251 = test system: U-251
MDA-N = test system: MDA-N
IGROV-1 = test system: IGROV-1
SF-539 = test system: SF-539
SNB-19 = test system: SNB-19
UO-31 = test system: UO-31
EKVX = test system: EKVX
UACC-257 = test system: UACC-257
KM12 = test system: KM12
MDA-MB-435 = test system: MDA-MB-435
T47D = test system: T47D
HCC 2998 = test system: HCC 2998
HT-29 = test system: HT-29
SK-MEL-28 = test system: SK-MEL-28
BT-549 = test system: BT-549
SW-620 = test system: SW-620
TK-10 = test system: TK-10
OVCAR-4 = test system: OVCAR-4
RXF 393 = test system: RXF 393

Measured: GI50

C=C(C)OCOCCOC
inactive: NCI-H23 > 100 µM | SK-MEL-5 > 100 µM | Malme-3M > 100 µM | OVCAR-3 > 100 µM | PC-3 > 100 µM | RPMI-8226 > 100 µM | SNB-75 > 100 µM | NCI-H226 > 100 µM | SR > 100 µM | DU-145 > 100 µM | NCI-H522 > 100 µM | K562 > 100 µM | ACHN > 100 µM | MOLT-4 > 100 µM | HCT-116 > 100 µM | LOX IMVI > 100 µM | SK-MEL-2 > 100 µM | MDA-MB-231 > 100 µM | COLO 205 > 100 µM | UACC-62 > 100 µM | OVCAR-8 > 100 µM | HOP-62 > 100 µM | CCRF-CEM > 100 µM | 786-0 > 100 µM | NCI/ADR-RES > 100 µM | A498 > 100 µM | HL-60 > 100 µM | OVCAR-5 > 100 µM | SF-268 > 100 µM | CAKI-1 > 100 µM | NCI-H460 > 100 µM | SK-OV-3 > 100 µM | MCF7 > 100 µM | A549 > 100 µM | Hs-578T > 100 µM | M14 > 100 µM | SF-295 > 100 µM | SN12C > 100 µM | U-251 > 100 µM | MDA-N > 100 µM | IGROV-1 > 100 µM | SF-539 > 100 µM | SNB-19 > 100 µM | UO-31 > 100 µM | EKVX > 100 µM | UACC-257 > 100 µM | KM12 > 100 µM | MDA-MB-435 > 100 µM | T47D > 100 µM | HCC 2998 > 100 µM | HT-29 > 100 µM | SK-MEL-28 > 100 µM | BT-549 > 100 µM | SW-620 > 100 µM | TK-10 > 100 µM
> 100 µM: HCT-15

CCOC(=O)C1=COC(C)(C)CC1=O
> 100 µM: HCT-15
inactive: NCI-H23 > 100 µM | SK-MEL-5 > 100 µM | OVCAR-3 > 100 µM | PC-3 > 100 µM | RPMI-8226 > 100 µM | SNB-75 > 100 µM | DU-145 > 100 µM | NCI-H522 > 100 µM | K562 > 100 µM | ACHN > 100 µM | MOLT-4 > 100 µM | OVCAR-4 > 100 µM | HCT-116 > 100 µM | SK-MEL-2 > 100 µM | MDA-MB-231 > 100 µM | COLO 205 > 100 µM | UACC-62 > 100 µM | OVCAR-8 > 100 µM | HOP-62 > 100 µM | 786-0 > 100 µM | NCI/ADR-RES > 100 µM | A498 > 100 µM | RXF 393 > 100 µM | OVCAR-5 > 100 µM | SF-268 > 100 µM | CAKI-1 > 100 µM | NCI-H460 > 100 µM | SK-OV-3 > 100 µM | MCF7 > 100 µM | A549 > 100 µM | Hs-578T > 100 µM | M14 > 100 µM | SF-295 > 100 µM | SN12C > 100 µM | U-251 > 100 µM | MDA-N > 100 µM | SF-539 > 100 µM | SNB-19 > 100 µM | UO-31 > 100 µM | EKVX > 100 µM | UACC-257 > 100 µM | KM12 > 100 µM | MDA-MB-435 > 100 µM | T47D > 100 µM | HT-29 > 100 µM | SK-MEL-28 > 100 µM | BT-549 > 100 µM | SW-620 > 100 µM | TK-10 > 100 µM

Reference: ChEMBL document CHEMBL1201862, “PubChem BioAssay data set” (2004)
